According to US20180305332A1, “Bispiperidinyl Derivatives as Liver X Receptor Beta Agonists, Compositions, and Their Use” (Merck Sharp & Dohme Corp., priority 2015, published 2018):

How the values were obtained:
[1] = target: T1, GST tagged LXRalpha LBD (ligand binding domain) (Homo sapiens, UniProt Q13133); assay: LanthaScreen TR-FRET Liver X Receptor Coactivator Assay, LXR alpha-LBD; format: biochemical; settings: relative to reference T0901317; for EC50 / LXR alpha IP (nM): Inflection Point (potency), co-activator recruitment; for EC50: read-out: LXR alpha IP; for Emax: read-out: LXR alpha act @ max dose (%)
T1 construct: purchased Invitrogen pv4655
T1 sequence (Q13133 209-447 limits assumed): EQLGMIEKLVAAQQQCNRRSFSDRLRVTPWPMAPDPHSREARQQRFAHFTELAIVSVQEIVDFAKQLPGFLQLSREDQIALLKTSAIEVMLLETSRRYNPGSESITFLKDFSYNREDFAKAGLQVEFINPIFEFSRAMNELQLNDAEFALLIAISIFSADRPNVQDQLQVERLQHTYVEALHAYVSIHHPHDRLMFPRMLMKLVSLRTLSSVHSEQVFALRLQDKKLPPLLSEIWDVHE
Outline: (§1)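 TR-FRET signal reflects compound-driven recruitment of a fluorescein-tagged coactivator peptide to the GST-tagged LBD, detected via terbium-labelled anti-GST antibody after incubation at room temperature. Potency given as inflection point; efficacy as Emax versus T0901317.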

[2] = target: T2, GST tagged LXRbeta LBD (ligand binding domain) (Homo sapiens, UniProt P55055); assay: LanthaScreen TR-FRET Liver X Receptor Coactivator Assay, LXR beta-LBD; format: biochemical; settings: relative to reference T0901317; for EC50: Inflection Point (potency), co-activator recruitment, read-out: LXR beta IP; for Emax: read-out: LXR beta act @ max dose (%)
T2 construct: purchased Invitrogen pv4658.pps
T2 sequence (P55055 222-460 limits assumed): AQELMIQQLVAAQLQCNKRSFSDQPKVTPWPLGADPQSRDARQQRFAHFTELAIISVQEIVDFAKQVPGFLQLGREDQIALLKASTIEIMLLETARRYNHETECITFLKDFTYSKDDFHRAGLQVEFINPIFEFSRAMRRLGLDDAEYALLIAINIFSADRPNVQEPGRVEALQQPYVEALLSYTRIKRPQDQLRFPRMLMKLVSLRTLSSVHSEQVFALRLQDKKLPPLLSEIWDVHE
Outline: as §1

[3] = activity at max dose (efficacy)

EC50 [1] [nM] | LXR alpha act @ max dose (%) [1, 3] [%] | EC50 [2] [nM] | LXR beta act @ max dose (%) [2, 3] [%] | Emax [1, 3] [%] | Emax [2, 3] [%] | LXR alpha IP (nM) [1] | Structure (SMILES)
686 | 45 | 108 | 70 | – | – | – | CC(C)CC(O)(C(=O)N1CCC(C2CCN(c3ccc(C(=O)N(C)C)c(Cl)c3)CC2)CC1)C(F)(F)F (centres unmarked) [Example A-90, 2-chloro-4-{1′-[2-hydroxy-4-methyl-2-(trifluoromethyl)pentanoyl]-4,4′-bipiperidin-1-yl}-N,N-dimethylbenzamide]
2090 | – | 147 | – | 42 | 112 | – | CN(C)C(=O)c1ccc(N2CCC(C3CCN(C(=O)C(C)(C)c4cccc(F)c4)CC3)CC2)cc1Cl [Example A-91, 2-chloro-4-{1′-[2-(3-fluorophenyl)-2-methylpropanoyl]-4,4′-bipiperidin-1-yl}-N,N-dimethylbenzamide]
2840 | – | 193 | – | 31 | 99 | – | Cc1ccc(C(C)(C)C(=O)N2CCC(C3CCN(c4ccc(C(=O)N(C)C)c(Cl)c4)CC3)CC2)cc1 [Example A-92, 2-chloro-N,N-dimethyl-4-{1′-[2-methyl-2-(4-methylphenyl)propanoyl]-4,4′-bipiperidin-1-yl}benzamide]
2270 | – | 171 | – | 22 | 100 | – | COc1cccc(C2(C(=O)N3CCC(C4CCN(c5ccc(C(=O)N(C)C)c(Cl)c5)CC4)CC3)CCC2)c1 [Example A-93, 2-chloro-4-(1′-{[1-(3-methoxyphenyl)cyclobutyl]carbonyl}-4,4′-bipiperidin-1-yl)-N,N-dimethylbenzamide]
250 | – | 13 | – | 67 | 124 | – | CN(C)C(=O)c1ccc(N2CCC(C3CCN(C(=O)C4(c5ccccc5Cl)CCCC4)CC3)CC2)cc1Cl [Example A-94, 2-chloro-4-(1′-{[1-(2-chlorophenyl)cyclopentyl]carbonyl}-4,4′-bipiperidin-1-yl)-N,N-dimethylbenzamide]
1330 | – | 84 | – | 38 | 116 | – | CN(C)C(=O)c1ccc(N2CCC(C3CCN(C(=O)C(O)(c4cccc(F)c4)C(F)(F)F)CC3)CC2)cc1Cl (centres unmarked) [Example A-95, 2-chloro-N,N-dimethyl-4-{1′-[3,3,3-trifluoro-2-(3-fluorophenyl)-2-hydroxypropanoyl]-4,4′-bipiperidin-1-yl}benzamide]
2340 | – | 132 | – | 29 | 107 | – | CN(C)C(=O)c1ccc(N2CCC(C3CCN(C(=O)C(O)(c4ccccc4F)C(F)(F)F)CC3)CC2)cc1Cl (centres unmarked) [Example A-96, 2-chloro-N,N-dimethyl-4-{1′-[3,3,3-trifluoro-2-(2-fluorophenyl)-2-hydroxypropanoyl]-4,4′-bipiperidin-1-yl}benzamide]
2430 | – | 114 | – | 37 | 100 | – | COc1ccccc1C(O)(C(=O)N1CCC(C2CCN(c3ccc(C(=O)N(C)C)c(Cl)c3)CC2)CC1)C(F)(F)F (centres unmarked) [Example A-97, 2-chloro-N,N-dimethyl-4-{1′-[3,3,3-trifluoro-2-hydroxy-2-(2-methoxyphenyl)propanoyl]-4,4′-bipiperidin-1-yl}benzamide]
4960 | – | 324 | – | 33 | 92 | – | CN(C)C(=O)c1ccc(N2CCC(C3CCN(C(=O)C(c4ccccc4)C(F)(F)F)CC3)CC2)cc1Cl (centres unmarked) [Example A-98, 2-chloro-N,N-dimethyl-4-[1′-(3,3,3-trifluoro-2-phenylpropanoyl)-4,4′-bipiperidin-1-yl]benzamide]
– | – | 496 | – | 0 | 54 | NO IP | CN(C)C(=O)c1ccc(N2CCC(C3CCN(S(=O)(=O)c4ccccc4)CC3)CC2)cc1Cl [Example A-99, 2-chloro-N,N-dimethyl-4-[1′-(phenylsulfonyl)-4,4′-bipiperidin-1-yl]benzamide]
5770 | – | 140 | – | 48 | 121 | – | Cc1ccccc1S(=O)(=O)N1CCC(C2CCN(c3ccc(C(=O)N(C)C)c(Cl)c3)CC2)CC1 [Example A-100, 2-chloro-N,N-dimethyl-4-{1′-[(2-methylphenyl)sulfonyl]-4,4′-bipiperidin-1-yl}benzamide]
618 | – | 8 | – | 65 | 138 | – | CN(C)C(=O)c1ccc(N2CCC(C3CCN(S(=O)(=O)c4ccccc4C(F)(F)F)CC3)CC2)cc1Cl [Example A-101, 2-chloro-N,N-dimethyl-4-(1′-{[2-(trifluoromethyl)phenyl]sulfonyl}-4,4′-bipiperidin-1-yl)benzamide]
57100 | – | 45 | – | 48 | 130 | – | CN(C)C(=O)c1ccc(N2CCC(C3CCN(S(=O)(=O)c4ccccc4C#N)CC3)CC2)cc1Cl [Example A-102, 2-chloro-4-{1′-[(2-cyanophenyl)sulfonyl]-4,4′-bipiperidin-1-yl}-N,N-dimethylbenzamide]
2190 | – | 16 | – | 54 | 122 | – | CN(C)C(=O)c1ccc(N2CCC(C3CCN(S(=O)(=O)c4ccccc4Cl)CC3)CC2)cc1Cl [Example A-103, 2-chloro-4-{1′-[(2-chlorophenyl)sulfonyl]-4,4′-bipiperidin-1-yl}-N,N-dimethylbenzamide]
2340 | – | 21 | – | 67 | 129 | – | CN(C)C(=O)c1ccc(N2CCC(C3CCN(S(=O)(=O)c4c(Cl)cccc4Cl)CC3)CC2)cc1Cl [Example A-104, 2-chloro-4-{1′-[(2,6-dichlorophenyl)sulfonyl]-4,4′-bipiperidin-1-yl}-N,N-dimethylbenzamide]
1090 | – | 55 | – | 44 | 118 | – | CN(C)C(=O)c1ccc(N2CCC(C3CCN(S(=O)(=O)c4c(Cl)cccc4C(F)(F)F)CC3)CC2)cc1Cl [Example A-105, 2-chloro-4-(1′-{[2-chloro-6-(trifluoromethyl)phenyl]sulfonyl}-4,4′-bipiperidin-1-yl)-N,N-dimethylbenzamide]
– | – | 825 | – | 17 | 62 | NO IP | CN(C)C(=O)c1ccc(N2CCC(C3CCN(c4ccccc4Cl)CC3)CC2)cc1Cl [Example A-107, 2-chloro-4-[1′-(2-chlorophenyl)-4,4′-bipiperidin-1-yl]-N,N-dimethylbenzamide]
522 | – | 8 | – | 74 | 131 | – | CN(C)C(=O)c1ccc(N2CCC(C3CCN(C(=O)OCc4c(Cl)cccc4Cl)CC3)CC2)cc1Cl [Example A-108, 2,6-dichlorobenzyl 1′-[3-chloro-4-(dimethylcarbamoyl)phenyl]-4,4′-bipiperidine-1-carboxylate]
54200 | – | 61 | – | 22 | 98 | – | CC(C)C(O)(C(=O)N1CCC(C2CCN(c3ccc(C(=O)N(C)C)c(Cl)c3)CC2)CC1)C(C)C [Example A-109, 2-chloro-4-{1′-[2-hydroxy-3-methyl-2-(1-methylethyl)butanoyl]-4,4′-bipiperidin-1-yl}-N,N-dimethylbenzamide]
1040 | – | 52 | – | 69 | 127 | – | CC(C)C(O)(C(=O)N1CCC(C2CCN(c3ccc(C(=O)N(C)C)c(Cl)c3)CC2)CC1)C1CC1 (centres unmarked) [Example A-110, 2-chloro-4-[1′-(2-cyclopropyl-2-hydroxy-3-methylbutanoyl)-4,4′-bipiperidin-1-yl]-N,N-dimethylbenzmamide]
1550 | – | 20 | – | 74 | 119 | – | CN(C)C(=O)c1ccc(N2CCC(C3CCN(C(=O)OC(C)(C)C)CC3)CC2)nc1Cl [Example B-1, tert-butyl 1′-[6-chloro-5-(dimethylcarbamoyl)pyridin-2-yl]-4,4′-bipiperidine-1-carboxylate]
1710 | – | 57 | – | 47 | 123 | – | CC(C)C(O)(C(=O)N1CCC(C2CCN(c3ccc(C(=O)N(C)C)c(Cl)n3)CC2)CC1)C(C)C [Example B-2, 2-chloro-6-{1′-[2-hydroxy-3-methyl-2-(1-methylethyl)butanoyl]-4,4′-bipiperidin-1-yl}-N,N-dimethylpyridine-3-carboxamide]
1790 | – | 325 | – | 71 | 143 | – | CC(C)C(O)(C(=O)N1CCC(C2CCN(c3ccc(C(=O)N(C)C)c(Cl)n3)CC2)CC1)C1CC1 (centres unmarked) [Example B-3, 2-chloro-6-[1′-(2-cyclopropyl-2-hydroxy-3-methylbutanoyl)-4,4′-bipiperidin-1-yl]-N,N-dimethylpyridine-3-carboxamide]
